Patent US9227967B2, “Inhibitor compounds of semicarbazide-sensitive amine oxidases” (Proximagen Limited, priority 2010, dated 2016)
Structures can show the parent of a compound that is named as a salt.

Target: T1, human SSAO (Homo sapiens, UniProt Q16853)
T1 construct: made in house
T1 sequence (Q16853 29-763 limits assumed): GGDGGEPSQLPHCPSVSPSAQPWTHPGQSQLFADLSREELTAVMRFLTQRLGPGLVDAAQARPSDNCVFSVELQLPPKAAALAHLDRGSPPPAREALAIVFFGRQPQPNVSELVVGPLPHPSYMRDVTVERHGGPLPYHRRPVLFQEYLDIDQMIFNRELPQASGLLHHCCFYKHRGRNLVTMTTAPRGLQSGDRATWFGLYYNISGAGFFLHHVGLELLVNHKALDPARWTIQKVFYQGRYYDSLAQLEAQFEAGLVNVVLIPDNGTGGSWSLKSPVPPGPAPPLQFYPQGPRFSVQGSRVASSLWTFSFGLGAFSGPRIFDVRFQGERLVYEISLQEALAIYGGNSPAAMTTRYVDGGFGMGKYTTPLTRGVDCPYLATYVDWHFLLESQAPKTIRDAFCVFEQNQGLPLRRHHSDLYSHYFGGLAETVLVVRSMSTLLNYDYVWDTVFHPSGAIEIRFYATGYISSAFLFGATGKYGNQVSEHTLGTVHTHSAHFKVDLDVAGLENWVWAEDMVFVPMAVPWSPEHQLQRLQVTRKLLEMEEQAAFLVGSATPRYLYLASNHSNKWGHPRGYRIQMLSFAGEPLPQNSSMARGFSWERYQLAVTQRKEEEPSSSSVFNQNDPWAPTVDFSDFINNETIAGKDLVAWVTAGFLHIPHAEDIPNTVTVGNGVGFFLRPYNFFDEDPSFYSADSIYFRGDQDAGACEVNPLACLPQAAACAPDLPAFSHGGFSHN
Test: SSAO enzyme inhibition assay (benzylamine substrate; HRP-coupled hydrogen peroxide detection or 14C-benzaldehyde detection)
Format: biochemical
Settings: purified recombinantly expressed human SSAO, benzylamine as substrate, r.t.; read-out: SSAO inhibitory activity IC50
Protocol: All primary assays were performed at r.t. with purified recombinantly expressed human SSAO. Enzyme was prepared essentially as described in Öhman et al. (Protein Expression and Purification 46 (2006) 321-331). In addition, secondary- and selectivity assays were performed using SSAO prepared from various tissues or purified rat recombinant SSAO. The enzyme activity was assayed with benzylamine as substrate by measuring either benzaldehyde production, using ^14C-labeled substrate, or by utilizing the production of hydrogen peroxide in a horseradish peroxidise (HRP) coupled reaction. Briefly, test compounds were dissolved in dimethyl sulfoxide (DMSO) to a concentration of 10 mM. Dose-response measurements were assayed by either creating 1:10 serial dilutions in DMSO to produce a 7 point curve or by making 1:3 serial dilutions in DMSO to produce 11 point curves. The top concentrations were adjusted depending on the potency of the compounds and subsequent dilution in reaction buffer yielded a final DMSO concentration ≦2%.
In a horseradish peroxidise (HRP) coupled reaction, hydrogen peroxide oxidation of 10-acetyl-3,7-dihydroxyphenoxazine produced resorufin, which is a highly fluorescent compound (Zhout and Panchuk-Voloshina. Analytical Biochemistry 253 (1997) 169-174; Amplex® Red Hydrogen Peroxide/peroxidise Assay kit, Invitrogen A22188). Enzyme and compounds in 50 mM sodium phosphate, pH 7.4 were set to pre-incubate in flat-bottomed microtiter plates for approximately 15 minutes before initiating the reaction by addition of a mixture of HRP, benzylamine and Amplex reagent. Benzylamine concentration was fixed at a concentration corresponding to the Michaelis constant, determined using standard procedures. Fluorescence intensity was then measured at several time points during 1-2 hours, exciting at 544 nm n and reading the emission at 590 nm. For the human SSAO assay final concentrations of the reagents in the assay wells were: SSAO enzyme 1 μg/ml, benzylamine 100 μM, Amplex reagent 20 μM, HRP 0.1 U/mL and varying concentrations of test compound. The inhibition was measured as % decrease of the signal compared to a control without inhibitor (only diluted DMSO). The background signal from a sample containing no SSAO enzyme was subtracted from all data points. Data was fitted to a four parameter logistic model and IC50 values were calculated using the GraphPad Prism 4 or XLfit 4 programs.
SSAO activity was assayed using 14C-labeled benzylamine and analysed by measuring radioactive benzaldehyde. In a white 96-well optiplate (Packard), 20 μL of diluted test compound was pre-incubated at r.t. with 20 μL SSAO enzyme for approximately 15 minutes with continuous agitation. All dilutions were made with PBS. The reaction was initiated by adding 20 μL of the benzylamine substrate solution containing [7-14C] Benzylamine hydrochloride (CFA589, GE Healthcare). The plate was incubated for 1 hour as above after which the reaction was stopped by acidification (10 μL 1 M HCl). Then 90 μL Micro Scint-E solution (Perkin-Elmer) was added to each well and the plate was continuously mixed for 15 minutes. Phase separation occurred instantly and activity was read in a Topcount scintillation counter (Perkin-Elmer). In the final reaction well, human recombinant SSAO concentration was 10 μg/ml. In order to optimize sensitivity, the substrate concentration was decreased as compared to the HRP coupled assay in order to get a higher fraction of radioactive product. In the human SSAO assay, benzylamine concentration was 40 μM (0.2 μCi/mL). Data was analysed as above.

| SMILES | IC50 [nM] |
| --- | --- |
| Cc1ccc(-n2nc(N3CC4CCC(C3)O4)c3ccncc32)cc1 [Compound 63, 3-[1-(4-Methylphenyl)-1H-pyrazolo[3,4-c]pyridin-3-yl]-8-oxa-3-azabicyclo[3.2.1]octane] | < 100 |
| Cc1ccc(-n2nc(N3CCOC(CC(C)C)C3)c3ccncc32)cc1 (stereo not shown) [Compound 61, 4-[1-(4-Methylphenyl)-1H-pyrazolo[3,4-c]pyridin-3-yl]-2-(2-methylpropyl)morpholine] | 100 to 500 |
| C[C@@H]1CN(c2nn(-c3ccc(Cl)cc3)c3cnccc23)C[C@H](C)O1 [Compound 62, (2S,6R)-4-[1-(4-Chlorophenyl)-1H-pyrazolo[3,4-c]pyridin-3-yl]-2,6-dimethylmorpholine] | 100 to 500 |
| c1ccc(-n2nc(C3CCOCC3)c3ccncc32)cc1 [Compound 40, 3-(Oxan-4-yl)-1-phenyl-1H-pyrazolo[3,4-c]pyridine] | 500 to 2500 |
| Clc1ccc(-n2cc(C3CCNCC3)c3ccncc32)cc1 [Compound 10, 1-(4-Chlorophenyl)-3-piperidin-4-yl-1H-pyrrolo[2,3-c]pyridine trifluoroacetate] | 100 to 500 |
| FC1(F)CCN(c2nn(-c3ccc(Cl)cc3)c3cnccc23)CC1 [Compound 52, 1-[1-(4-Chlorophenyl)-1H-pyrazolo[3,4-c]pyridin-3-yl]-4,4-difluoropiperidine] | 100 to 500 |
| OCCN1CCC(c2cn(-c3ccc(Cl)cc3)c3cnccc23)CC1 [Compound 18, 2-{4-[1-(4-Chlorophenyl)-1H-pyrrolo[2,3-c]pyridin-3-yl]piperidin-1-yl}ethan-1-ol] | 100 to 500 |
| Clc1ccc(-c2cn(C3CCNCC3)c3ccncc23)cc1Cl [Compound 6, 4-[3-(3,4-Dichlorophenyl)-1H-pyrrolo[3,2-c]pyridin-1-yl]piperidine hydrochloride] | 500 to 2500 |
| COc1cncc2c1c(C1CCOCC1)nn2-c1ccc(Cl)cc1 [Compound 94, 1-(4-Chlorophenyl)-4-methoxy-3-(oxan-4-yl)-1H-pyrazolo[3,4-c]pyridine] | 500 to 2500 |
| COC1CCN(c2nn(-c3ccc(C)cc3)c3cnccc23)C1 (stereo not shown) [Compound 50, 3-Methoxy-1-[1-(4-methylphenyl)-1H-pyrazolo[3,4-c]pyridin-3-yl]pyrrolidine] | < 100 |
| CC(C)(C)OC(=O)N1CCC(c2cn(-c3ccc(Cl)cc3)c3cnccc23)CC1 [Compound 9, tert-Butyl 4-[1-(4-chlorophenyl)-1H-pyrrolo[2,3-c]pyridin-3-yl]piperidine-1-carboxylate] | 500 to 2500 |
| Clc1ccc(-n2cc(C3=CCNCC3)c3ccncc32)cc1 [Compound 8, 4-[1-(4-Chlorophenyl)-1H-pyrrolo[2,3-c]pyridin-3-yl]-hydrochloride] | 100 to 500 |
| OC1CCN(Cc2cn(-c3ccc(Cl)cc3)c3cnccc23)CC1 [Compound 30, 1-{[1-(4-Chlorophenyl)-1H-pyrrolo[2,3-c]pyridin-3-yl]methyl}piperidin-4-ol] | 100 to 500 |
| NCCOC(=O)N1CCC(c2cn(-c3ccc(Cl)cc3)c3cnccc23)CC1 [Compound 106, 2-Aminoethyl 4-[1-(4-chlorophenyl)-1H-pyrrolo[2,3-c]pyridin-3-yl]piperidine-1-carboxylate] | < 100 |
| Cc1ccc(-n2nc(N3CCOC(C)(C)C3)c3ccncc32)cc1 [Compound 64, 2,2-Dimethyl-4-[1-(4-methylphenyl)-1H-pyrazolo[3,4-c]pyridin-3-yl]morpholine] | < 100 |
| Cn1cc(CN2CCC(c3cn(-c4ccc(Cl)cc4)c4cnccc34)CC2)cn1 [Compound 20, 4-[1-(4-Chlorophenyl)-1H-pyrrolo[2,3-c]pyridin-3-yl]-1-[(1-methyl-1H-pyrazol-4-yl)-methyl]piperidine] | 100 to 500 |

| SMILES | IC50 [nM] |
| --- | --- |
| Clc1ccc(-n2nc(N3CCCCC3)c3ccncc32)cc1 [Compound 51, 1-[1-(4-Chlorophenyl)-1H-pyrazolo[3,4-c]pyridin-3-yl]piperidine] | 500 to 2500 |
| Cc1ccc(-n2nc(N3CCOC(CN)C3)c3ccncc32)cc1 (stereo not shown) [Compound 72, {4-[1-(4-Methylphenyl)-1H-pyrazolo[3,4-c]pyridin-3-yl]morpholin-2-yl}methanamine] | 100 to 500 |
| CC(C)(C)OC(=O)NC1CCC(c2cn(-c3ccc(Cl)cc3)c3cnccc23)CC1 (stereo not shown) [Compound 11, tert-Butyl N-{4-[1-(4-chlorophenyl)-1H-pyrrolo[2,3-c]pyridin-3-yl]cyclohexyl}-carbamate] | 100 to 500 |
| Cc1ccc(-n2nc(C3CCOC3)c3ccncc32)cc1 (stereo not shown) [Compound 81, 1-(4-Methylphenyl)-3-(oxolan-3-yl)-1H-pyrazolo[3,4-c]pyridine] | 100 to 500 |
| Cc1ccc(-n2nc(C3CCOCC3)c3ccncc32)c(C)c1 [Compound 45, 1-(2,4-Dimethylphenyl)-3-(oxan-4-yl)-1H-pyrazolo[3,4-c]pyridine] | 500 to 2500 |
| Cc1ccc(-n2nc(N3CCOCC3)c3ccncc32)c(F)c1 [Compound 58, 4-[1-(2-Fluoro-4-methylphenyl)-1H-pyrazolo[3,4-c]pyridin-3-yl]morpholine] | < 100 |
| Cc1ccc(-n2nc(N3CCC(C(N)=O)CC3)c3ccncc32)cc1 [Compound 54, 1-[1-(4-Methylphenyl)-1H-pyrazolo[3,4-c]pyridin-3-yl]piperidine-4-carboxamide] | < 100 |
| Cc1ccc(-n2nc(C3CCOCC3)c3ccncc32)cn1 [Compound 47, 2-Methyl-5-[3-(oxan-4-yl)-1H-pyrazolo[3,4-c]pyridin-1-yl]pyridine] | 500 to 2500 |
| Clc1ccc(-n2cc(N3CCOCC3)c3ccncc32)cc1 [Compound 104, 4-[1-(4-Chlorophenyl)-1H-pyrrolo[2,3-c]pyridin-3-yl]morpholine 2,2,2-trifluoroacetic acid] | < 100 |
| Fc1ccc(-n2cc(C3CCOCC3)c3ccncc32)cc1 [Compound 100, 1-(4-Fluorophenyl)-3-(oxan-4-yl)-1H-pyrrolo[2,3-c]pyridine] | 100 to 500 |
| Cc1ccc(-n2nc(C3CCOCC3)c3ccncc32)nc1 [Compound 46, 5-Methyl-2-[3-(oxan-4-yl)-1H-pyrazolo[3,4-c]pyridin-1-yl]pyridine] | 500 to 2500 |
| CC(C)(C)OC(=O)N1CCN(Cc2cn(-c3ccc(Cl)cc3)c3cnccc23)CC1 [Compound 25] | 500 to 2500 |
| Cc1ccc(-n2nc(N3CCC(O)CC3)c3ccncc32)cc1 [Compound 74, 1-[1-(4-Methylphenyl)-1H-pyrazolo[3,4-c]pyridin-3-yl]piperidin-4-ol] | < 100 |
| COCCN(C)c1nn(-c2ccc(C)cc2)c2cnccc12 [Compound 69, N-(2-Methoxyethyl)-N-methyl-1-(4-methylphenyl)-1H-pyrazolo[3,4-c]pyridin-3-amine] | 100 to 500 |
| Cc1ccc(-n2nc(C3CCC(=O)NC3)c3ccncc32)cc1 (stereo not shown) [Compound 87, 5-[1-(4-Methylphenyl)-1H-pyrazolo[3,4-c]pyridin-3-yl]piperidin-2-one] | 100 to 500 |
